Consider one compound from US8927523B2, “Compound sea cucumber preparation and manufacturing method thereof” (Dalian Haiyantang Biology Co., Ltd., priority 2010, dated 2015).

In test [1] the test system is experimental diabetic mice caused by alloxan. Kind of test: Fasting plasma glucose of experimental diabetic mice caused by alloxan. The format is in vivo. Particulars: 200 mg/kg b.i.d. irrigating stomachs. Here is the method: Take male, 18˜22 g Kunming variety mice, randomly take 10 mice from them as normal control group. Other mice are injected with alloxan 50 mg/kg after fasting (water is allowed) for 16 h, determine the fasting plasma glucose (FPG) fasting for 5 h after the mice are stable for 15 days, mice with FPG>10 mmol/L are high plasma glucose model mice.
10 mice for normal control group. Take 40 high plasma glucose mice, randomly divide into high plasma glucose model group, compound sea cucumber preparation high dosage (0.5 g/kg) group, compound sea cucumber preparation low dosage (0.25 g/kg) group and positive drug metformin 200 mg/kg group.
Mice of the compound sea cucumber preparation high dosage group and the compound sea cucumber preparation low dosage group are respectively treated with 0.025 g/ml and 0.0125 g/ml suspension of compound sea cucumber preparation and normal saline 0.2 mL/10 gBW by irrigating stomachs, mice of the metformin 200 mg/kg group are treated with […] metformin normal saline solution 0.2 mL/10 gBW by irrigating stomachs, while mice of the normal control group and high plasma glucose model group are treated with equal volume of normal saline by irrigating stomachs. Mice of each group are treated twice each day (b.i.d) continuously for 4 weeks.

Test [2] shares this test system. Kind of test: Glucose tolerance of experimental diabetic mice caused by alloxan. The format is in vivo. Particulars: 200 mg/kg b.i.d. The protocol: Building of mice high glucose model, animal grouping and treating ways are the same as above description.
[formula] wherein, C is the plasma glucose value (mmol/L), t is the time after glucose load (h), i is the glucose value number; C0, C1, C2, C3, C4 are respectively plasma glucose value of before glucose load (0 min) and 30 min, 60 min, 120 min and 240 min after glucose load.

For test [3], the system named is insulin resistance HepG2 cells. Put plainly: Glucose consumption of insulin resistance HepG2 cells (glucose oxidase method). It is filed as cell-based, Human. Particulars: 30 mg/L. Here is the method: (§1) Human liver cancer cell line HepG2 provided by Dalian Medical University is vaccinated in a DMEM culture medium which contains 10% volume fraction of fetal calf serum (supplementing penicillin, streptomycin […] respectively), and the culture medium is placed in a 5% CO2 cell culture box at 37° C. […] Incubate for 8 h in culture box in the conditions of 37° C. and 5% CO2 to form monolayer anchorage-dependent cells. Wash the cells twice with DMEM culture solution without fetal calf serum, then incubate the cells for 16 h with 5×10^−7 mol·L^−1 insulin culture solution in culture box in the conditions of 37° C. and 5% CO2. The HepG2 cells incubated for 16 h with insulin culture solution are model cells. Count the prepared cell suspension, adjust the cell concentration to 5×10^4·ml^−1, vaccinate on 96-well cell culture plate, 8-well in duplicate for each group, total amount of 200 uL for each well. The experiment is divided into 5 groups: normal control group, insulin resistance model group, compound sea cucumber preparation high and low dosage groups and metformin positive control group. Except the normal control group, each other group is incubated for 16 h after adding insulin with ultimate concentration of 5×10^−7 mol·L^−1 into culture solution so as to form insulin resistance model. […]

Test [4] concerns insulin resistance HepG2 cells. Put plainly: Glycerin consumption of insulin resistance HepG2 cells (GPO-POD enzyme method). The format is cell-based, Human. Particulars: 30 mg/L. Here is the method:
as §1

Test [5] deals with insulin resistance HepG2 cells. Put plainly: Cell proliferation of insulin resistance HepG2 cells with MTT method. The format is cell-based, Human. The following applies: 30 mg/L. On the technique in general: Tetrazolium assays rely on reduction of a dye to a coloured formazan, in cell work by metabolically active cells.
Experimental: Human liver cancer cell line HepG2 provided by Dalian Medical University is vaccinated in a DMEM culture medium which contains 10% volume fraction of fetal calf serum (supplementing penicillin, streptomycin 100 U·L^−1 respectively), and the culture medium is placed in a 5% CO2 cell culture box at 37° C.
The mark [6] stands for this setting: vs high plasma glucose model group.
Where [7] appears, read: 28th day, 2 g/kg glucose by abdomen injection.
The mark [8] stands for this setting: 24 h, compared with model group.

In the case of `CN(C)C(=N)N=C(N)N` [Metformin, metformin], in test [1] (n=10), the “Fasting Plasma Glucose (FPG) 7 days after treating” value came out at 18.80 ± 2.77 mmol/L, the “Fasting Plasma Glucose (FPG) 14 days after treating” value was 24.59 ± 4.17 mmol/L, the “Fasting Plasma Glucose (FPG) 21 days after treating” value worked out at 21.18 ± 3.12 mmol/L and the “Fasting Plasma Glucose (FPG) 28 days after treating” value amounted to 20.72 ± 3.03 mmol/L. For the same compound, the “Weight 28 days after treating” value in test [1] (n=10) came out at 31.76 ± 1.74 g. In addition, in test [1] (setting [6]), the “FPG Reduce % 7 days after treating” value is on record as 21.7%, the “FPG Reduce % 14 days after treating” value was found to be 17.1%, the “FPG Reduce % 21 days after treating” value is reported as 29.5% and the “FPG Reduce % 28 days after treating” value was found to be 31.3%. For the same compound, the “Area under the glucose load curve (ADC, mmol · h/L)” value in test [2] (28th day, 0-240 min, trapezoid area method) was 106.05 ± 12.0 mmol·h/L. Also, in test [2] (setting [7]), the “Plasma Glucose after glucose load 30 min” value is given as 31.68 ± 2.78 mmol/L, the “Plasma Glucose after glucose load 60 min” value is given as 31.19 ± 3.42 mmol/L, the “Plasma Glucose after glucose load 120 min” value was found to be 27.43 ± 4.37 mmol/L and the “Plasma Glucose after glucose load 240 min” value turned out to be 20.49 ± 2.58 mmol/L. Further, the AUC reduce % in test [2] (28th day, vs high plasma glucose model group) is reported as 18.2%. For the same compound, the “Fasting Plasma Glucose (FPG, mmol/L)” value in test [2] (28th treating day, before glucose load) stood at 20.72 ± 3.03 mmol/L. In addition, in test [3] (setting [8]), the “Glucose consumption increase %” value came to 115.10%. For the same compound, in test [3] (24 h after treating), the “Glucose consumption” value is on record as 2.83 ± 0.14 mmol/L. Moreover, the “Glycerin consumption increase %” value in test [4] (setting [8]) is on record as 165.97%. The “Glycerin consumption” value in test [4] (24 h after treating) is 0.39 ± 0.02 mmol/L. In test [5], the Cell increase % was found to be 0.28% and the Cell survival % was 100.28 ± 1.93Δ %.
